Data: patent publication US20250235424A1, “PHARMACEUTICAL COMPOSITION CONTAINING DOCETAXEL OR PHARMACEUTICALLY ACCEPTABLE SALT THEREOF AND PREPARATION METHOD THEREFOR” (WEBIOTREE CO., LTD, priority 2022, published 2025)

How the values were obtained:
in vivo = conditions: rat, po, 50 mg/kg
Method: The graphs of FIGS. 1, 3, 5, and 6 show the docetaxel concentrations in plasma over time in rats, which were measured by collecting blood at 0 hr, 0.25 hr, 0.5 hr, 1 hr, 2 hr, 4 hr, 6 hr, 8 hr, and 12 hr.

[1] = In-vivo pharmacokinetic analysis (beagle), single oral administration; conditions: dog, plasma, beagles, Docetaxel PO 50 mg/kg
From the text: The compositions of Example 83 and Comparative Example 1 were single orally administered to beagles to obtain plasma drug concentration information. The results are shown in Tables 12 and 13 below and FIGS. 8 and 9.

Q: With `CC(=O)O[C@@]12CO[C@@H]1C[C@H](O)[C@@]1(C)C(=O)[C@H](O)C3=C(C)[C@@H](OC(=O)[C@H](O)[C@@H](NC(=O)OC(C)(C)C)c4ccccc4)C[C@@](O)([C@@H](OC(=O)c4ccccc4)[C@H]21)C3(C)C` [Comparative Example 1, Docetaxel] as the compound, how does the AUC(0-t) (in vivo) read?
A: The AUC(0-t) was 0.85 ng·h/mL.

Q: And the Cmax (in vivo)?
A: The Cmax was 0.12 ng/mL.

Q: And the Tmax (in vivo)?
A: Its Tmax is 12 h.

Q: What about the AUC(0-t) [1] of the same compound?
A: The AUC(0-t) was 1.86 ng·h/mL.

Q: And the Cmax [1]?
A: The Cmax was 0.5 ng/mL.

Q: And the Tmax [1]?
A: The Tmax was 3.5 h.

Q: What about the concentration at 0.25 h ([1]; 0.25 h, mean n = 2) of the same compound?
A: Its concentration at 0.25 h is 0.239 ng/mL.

Q: And the concentration at 0.5 h ([1]; 0.5 h, mean n = 2)?
A: Its concentration at 0.5 h is 0.219 ng/mL.

Q: What about the concentration at 1 h ([1]; 1 h, mean n = 2) of the same compound?
A: Its concentration at 1 h is 0.243 ng/mL.

Q: And the concentration at 2 h ([1]; 2 h, mean n = 2)?
A: The concentration at 2 h was 0.14 ng/mL.

Q: What about the concentration at 4 h ([1]; 4 h, mean n = 2) of the same compound?
A: Its concentration at 4 h is 0.621 ng/mL.

Q: And the concentration at 6 h ([1]; 6 h, mean n = 2)?
A: The concentration at 6 h was 0.675 ng/mL.

Q: What about the concentration at 8 h ([1]; 8 h, mean n = 2) of the same compound?
A: Its concentration at 8 h is 0.222 ng/mL.
